According to patent US20210338626A1, “METHODS FOR TREATING OR PREVENTING A VIRAL INFECTION OR INHIBITING VIRAL REPLICATION” (Dalcor Pharma UK Ltd., Leatherhead, Zug Branch, priority 2020, published 2021):
Read-outs that look alike come from different tables or passages of the source.

Tests used:
SARS-CoV-2 = SARS-CoV-2 plaque formation in Vero E6 cells; assay type: cell-based; conditions: Severe acute respiratory syndrome coronavirus 2, Vero C1008, pre-incubated one hour before addition of virus, read-out: IC50, SARS-CoV-2 plaque formation / viral replication
[1] = set-up: species or system rats; conditions: rat, in vivo
Description: (§1) In rats, the percentages of an administered oral dose excreted into the feces as dalcetrapib-ester and dalcetrapib thiol plus dalcetrapib thiol dimer are 41.1% and 17.8%, respectively. The corresponding values following oral administration in monkeys are 11.6% and 22.2%.

[2] = set-up: species or system rodents; conditions: in vivo, po
Description: as §1

[3] = in vivo; cited from earlier work
[4] = target: T1, cholesteryl ester transfer protein (Homo sapiens, UniProt P11597); conditions: cited from earlier work
T1 sequence (P11597 18-493): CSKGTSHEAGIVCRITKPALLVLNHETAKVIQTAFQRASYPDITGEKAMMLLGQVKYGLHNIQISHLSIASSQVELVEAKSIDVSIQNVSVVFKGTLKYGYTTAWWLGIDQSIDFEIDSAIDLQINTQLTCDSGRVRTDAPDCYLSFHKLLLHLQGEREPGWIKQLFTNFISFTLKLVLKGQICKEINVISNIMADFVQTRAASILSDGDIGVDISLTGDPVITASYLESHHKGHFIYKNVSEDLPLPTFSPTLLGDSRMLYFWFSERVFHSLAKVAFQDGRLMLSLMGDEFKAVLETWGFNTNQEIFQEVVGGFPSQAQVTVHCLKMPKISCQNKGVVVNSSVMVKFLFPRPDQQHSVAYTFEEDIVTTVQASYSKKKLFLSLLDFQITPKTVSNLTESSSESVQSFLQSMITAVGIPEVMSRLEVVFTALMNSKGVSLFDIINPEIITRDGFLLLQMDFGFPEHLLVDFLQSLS

[5] = set-up: species or system monkeys; conditions: monkey, in vivo
Description: as §1

Row | Structure (SMILES) | IC50 (SARS-CoV-2) [µM] | percentage of administered oral dose excreted into the feces as dalcetrapib thiol plus dalcetrapib thiol dimer [1] [%] | percentage of administered oral dose excreted into the feces as dalcetrapib-ester [1] [%] | tissue distribution [2] | safety issues from formation of covalent protein adducts [3] | IC50 ([4]; pre-incubation 1 hour) [µM] | IC50 ([4]; pre-incubation 24 hours) [µM] | percentage of administered oral dose excreted into the feces as dalcetrapib thiol plus dalcetrapib thiol dimer [5] [%] | percentage of administered oral dose excreted into the feces as dalcetrapib-ester [5] [%]
1 | CCC(CC)CC1(C(=O)Nc2ccccc2S)CCCCC1 [Dalcetrapib thiol] | ~17.8 | – | – | – | – | – | – | – | –
2 | CCC(CC)CC1(C(=O)Nc2ccccc2SC(=O)C(C)C)CCCCC1 [Dalcetrapib] | 17.8 | 17.8 | 41.1 | distributes in all tissues including the lungs and gastrointestinal tract | has not been observed | 1.18 | 0.045 | 22.2 | 11.6
